Experimental data from patent US20080096251A1, “Invertebrate-Derived Gonadotropic Hormone and its Synthesis” (priority 2004, published 2008).

Legend:
[1] = test system: ovary of Asterina pectinifera; assay: gonad-stimulating activity: spawning of matured eggs from ovary fragments in a two-fold dilution series; assay type: cell-based; settings: for EC50(nM) gonad-stimulating activity, Asterina pectinifera: Asterina pectinifera ovary piece in seawater, 25° C., spawning after 1 hr; for gonad-stimulating activity (in words): summary of Table 1, Asterina pectinifera
Procedure: (§1) Gonad-stimulating activity could be measured by the following methods:
(§2) Those individuals, whose eggs are highly sensitive to oocyte maturation-inducing hormone, are selected from matured invertebrate female individuals and are separated as test individuals.
(§3) Ovaries are excised from test individuals into seawater and are cut in small pieces. The assay plate for multiple test samples is filled with 200 μl seawater. Two μl of a test sample for gonad-stimulating activity is diluted to 200 folds by mixing with 398 μl seawater. The half portion (200 μl) is diluted to two fold by mixing with 200 μl seawater in the assay plate. The half portion (200 μl) is further diluted to two fold by mixing with 200 μl seawater in the assay plate. Repeating of the procedure results in preparation of two fold dilution series from 200-folds dilution to 102,400-folds dilution. A small piece of ovary is added to each dilution sample and is allowed to rest at 25° C. The gonad-stimulating activity is evaluated by spawning of matured eggs from a contracted small piece of ovary after 1 hr. The relative gonad-stimulating activity is assessed by the degree of dilution.
(§4) In the following Examples, gonad-stimulating activity are examined by the following way:
(§5) Two to three individuals bearing oocyte with high sensitivity of a gonadotropic hormone (1-methyladenine) are selected from several tens of female individuals of matured Asterina pectinifera (or Asterias amurensis) and are separated as test individuals.
(§6) The selection was performed in the following way:
(§7) The oocyte maturation-inducing hormone was diluted to 6 different concentrations, i.e. 10^−6 M, 3×10^−7 M, 10^−7 M, 3×10^−8 M, 10^−8 M, and 3×10^−9 M, in seawater, wherein small fragment of ovary was added to the different concentrations of maturation-inducing hormone and was allowed to stand for 60 min at room temperature. Maturation of oocyte was examined under microscope after 60 min to see whether the structure of nuclei in an oocyte was degraded to prepare for next fertilization. The concentration of the oocyte maturation-inducing hormone at maturation was checked and those individuals, which were matured at less than 10^−7 M, were used as test individuals.
as §3, with “(with tufted morphology) were removed” for “are excised”, “were” for “are”, “into about 5 mm fragments.” for “in small pieces.”, “hr (FIG. 1).” for “hr.”

[2] = test system: ovary of Asterias amurensis; assay: as above; assay type: cell-based; settings: Asterias amurensis ovary piece in seawater, 25° C., spawning after 1 hr
Procedure: as §1, §2, §3, §4, §5, §6, §7
as §3, with “(with tufted morphology) were removed” for “are excised”, “were” for “are”, “into about 5 mm fragments.” for “in small pieces.”, “hr (FIG. 1).” for “hr.”

Sequence | EC50(nM) gonad-stimulating activity, Asterina pectinifera [1] | gonad-stimulating activity (in words) [1] | EC50(nM) gonad-stimulating activity, Asterias amurensis [2]
EKYCDDDFHMAVFRTCAVS [GSS-A, synthesized subunit peptide, 19 amino acid residues, molecular weight 2236] | No activity | did not show gonad-stimulating activity | No activity
SEYSGIASYCCLHGCTPSELSVVC [GSS-B] | No activity | did not show gonad-stimulating activity | No activity
